In patent US10167300B2, “Metalloenzyme inhibitor compounds as fungicides” (priority 2014, dated 2019):
Where two headings read alike, the source gives them in different places.

Assay: Type B (low volume, EC formulation, track sprayer 200 L/ha) assay, leaf blotch of wheat, SEPTTR field isolate (FI SEPTTR)
Type: in vivo, Mycosphaerella graminicola on wheat plants (variety Yuma)
Settings: Zymoseptoria tritici, 72 h, field isolate, low volume EC, 100 g/ha, wheat (Yuma)
Protocol: Example A: Evaluation of Fungicidal Activity: Leaf Blotch of Wheat (Mycosphaerella graminicola; Anamorph: Septoria tritici; Bayer Code SEPTTR)
For Type A assays, technical grades of the experimental fungicides in Table 4 below were dissolved in acetone, and then mixed with nine volumes of water containing 110 ppm Triton X-100. The fungicide solutions were applied onto wheat seedlings using an automated booth sprayer. For Type B assays, emulsifiable concentrate (EC) formulations of technical grades of the experimental fungicides in Table 4 below were prepared at 10% (w/v), and then mixed with 150 volumes of 0.1% Trycol 5941. These solutions were applied onto wheat seedlings using an automated track sprayer at 200 L/ha. All sprayed plants were allowed to air dry prior to further handling.
Wheat plants (variety Yuma) were grown from seed in a greenhouse in 50% mineral soil/50% soil-less Metro mix until the first leaf was fully emerged, with 7-10 seedlings per pot. Prior to or after application of experimental fungicides, plants were inoculated either with spores of a standard laboratory SEPTTR isolate (SI SEPTTR) or with spores from a SEPTTR field isolate collected from Wellsbourne, England in 2012 (FI SEPTTR). After inoculation the plants were kept for 3 days at 20° C. in 100% relative humidity (one day in a dark dew chamber followed by two days in a lighted dew chamber). Plants were then transferred to a 20° C. greenhouse for disease development. When disease symptoms were fully expressed on untreated plants, infection levels on treated plants were assessed on a scale of 0 to 100 percent disease severity. Percent disease control was calculated using the ratio of disease severity on treated plants relative to untreated plants.

[1] = 3 Day Curative, read-out: Disease Control, FI SEPTTR Type B Assay (100 g/ha) 3 DC
[2] = 3 Day Protectant, read-out: Disease Control, FI SEPTTR Type B Assay (100 g/ha) 3 DP

Row | SMILES | pest or weed control at 100 g/ha [1] | pest or weed control at 100 g/ha [2]
1 | CO/N=C(/C)c1ccc(-c2ccc(C(O)(c3cncnc3)C(C)(C)C)nc2)cc1 (stereo not drawn) [Compound 132, (Z)-1-(4-(6-(1-hydroxy-2,2-dimethyl-1-(pyrimidin-5-yl)propyl)pyridin-3-yl)phenyl)ethanone O-methyl oxime] | 80 to 100% | 80 to 100%
2 | CC(C)(C)C(O)(c1cncnc1)c1ccc(-c2ccc(F)cc2F)cn1 (stereo not drawn) [Compound 164] | 80 to 100% | 80 to 100%
3 | CC(C)(C)C(O)(c1cncnc1)c1ccc(-c2ccc(I)cc2)cn1 (stereo not drawn) [Compound 165, 1-(5-(4-iodophenyl)pyridin-2-yl)-2,2-dimethyl-1-(pyrimidin-5-yl)propan-1-ol] | 80 to 100% | 80 to 100%
4 | CC(C)(C)C(O)(c1cncnc1)c1ccc(-c2ccc(F)cc2Cl)cn1 (stereo not drawn) [Compound 166] | 80 to 100% | 80 to 100%
5 | COC(c1cncnc1)(c1ccc(-c2ccc(OC(F)(F)F)cn2)cn1)C(C)(C)C (stereo not drawn) [Compound 173] | 80 to 100% | 80 to 100%
6 | CC(C)(C)C(O)(c1ccc(-c2ccc(OC(F)(F)F)cn2)cn1)c1cnccn1 (stereo not drawn) [Compound 174] | 60 to 79% | 80 to 100%
7 | CC(C)(C#N)c1ccc(-c2ccc(C(O)(c3cncnc3)C(C)(C)C)nc2)c(C#N)c1 (stereo not drawn) [Compound 175, 5-(2-cyanopropan-2-yl)-2-(6-(1-hydroxy-2,2-dimethyl-1-(pyrimidin-5-yl)propyl)pyridin-3-yl)benzonitrile] | 80 to 100% | 80 to 100%
8 | CCOC(c1cncnc1)(c1ccc(-c2ccc(OC(F)(F)F)cc2F)cn1)C(C)C (stereo not drawn) [Compound 176] | < 40% | 60 to 79%
9 | CCOC(C)(c1cncnc1)c1ccc(-c2ccc(OC(F)(F)F)cc2)cn1 (stereo not drawn) [Compound 177] | < 40% | 60 to 79%
10 | CC(C)(C)C(O)(Cc1cncnc1)c1ccc(-c2ccc(C3(C#N)CC3)cc2)cn1 (stereo not drawn) [Compound 178] | < 40% | 60 to 79%
11 | CCc1cc(C(C)(C)C#N)ccc1-c1ccc(C(O)(c2cncnc2)C(C)(C)C)nc1 (stereo not drawn) [Compound 179] | 80 to 100% | 80 to 100%
12 | CC(C)(C)C(O)(c1ccc(-c2ccc(OCC(F)(F)F)nc2)cn1)c1cnccn1 (stereo not drawn) [Compound 180] | 60 to 79% | 40 to 59%
13 | CC(C)(C)c1ccc(-c2ccc(C(O)(Cc3cncnc3)C(C)(C)C)nc2)cc1 (stereo not drawn) [Compound 181] | < 40% | 60 to 79%
14 | CC#CC(OC)(c1cncnc1)c1ccc(-c2ccc(OC(F)(F)F)cc2F)cn1 (stereo not drawn) [Compound 182] | < 40% | 60 to 79%
15 | CC(C)(C#N)c1ccc(-c2ccc(C(O)(c3cncnc3)C(C)(C)C)nc2)nc1 (stereo not drawn) [Compound 183] | 80 to 100% | 80 to 100%
16 | OC(c1cncnc1)(c1ccc(-c2ccc(OC(F)(F)F)cc2F)cn1)C1CC1 (stereo not drawn) [Compound 184] | < 40% | 40 to 59%
17 | CC#CC(O)(c1cncnc1)c1ccc(-c2ccc(OC(F)(F)F)cc2F)cn1 (stereo not drawn) [Compound 185] | < 40% | 80 to 100%
18 | COc1ncncc1C(O)(c1ccc(-c2ccc(OCC(F)(F)F)cn2)cn1)C(C)(C)C (stereo not drawn) [Compound 186] | 40 to 59% | 80 to 100%
19 | COc1ncncc1C(O)(c1ccc(-c2ccc(OC(F)(F)F)cc2F)cn1)C(C)(C)C (stereo not drawn) [Compound 187] | 80 to 100% | 80 to 100%
20 | CC(C)(C#N)c1ccc(-c2ccc(C(O)(c3cnccn3)C(C)(C)C)nc2)cc1 (stereo not drawn) [Compound 188] | 60 to 79% | 80 to 100%
21 | C#CCOC(c1cncnc1)(c1ccc(-c2ccc(OC(F)(F)F)cc2F)cn1)C(C)(C)C (stereo not drawn) [Compound 189] | 40 to 59% | 80 to 100%
22 | CCOC(CC)(c1cncnc1)c1ccc(-c2ccc(OC(F)(F)F)cc2F)cn1 (stereo not drawn) [Compound 190] | 60 to 79% | 40 to 59%
23 | C#CCOC(c1cncnc1)(c1ccc(-c2ccc(OC(F)(F)F)cc2F)cn1)C(C)C (stereo not drawn) [Compound 191] | < 40% | 80 to 100%
24 | COC(c1cncnc1)(c1ccc(-c2ccc(C3(C#N)CC3)cc2)cn1)C(C)(C)C (stereo not drawn) [Compound 192] | 80 to 100% | 80 to 100%

Row | SMILES | pest or weed control at 100 g/ha [1] | pest or weed control at 100 g/ha [2]
25 | COC(c1cncnc1)(c1ccc(-c2ccc(OC(F)(F)F)cc2)cn1)C(C)C (stereo not drawn) [Compound 194] | < 40% | 80 to 100%
26 | CC(C)(C)C(O)(Cc1cncnc1)c1ccc(-c2ccc(OCC(F)(F)F)nc2)cn1 (stereo not drawn) [Compound 195] | < 40% | 40 to 59%
27 | C#CCOC(c1cncnc1)(c1ccc(-c2ccc(OC(F)(F)F)cc2)cn1)C(C)(C)C (stereo not drawn) [Compound 197] | < 40% | 80 to 100%
28 | CCOC(c1cncnc1)(c1ccc(-c2ccc(OC(F)(F)F)cc2)cn1)C(C)(C)C (stereo not drawn) [Compound 198] | < 40% | 80 to 100%
29 | COC(c1cncnc1)(c1ccc(-c2ccc(OC(F)(F)F)cc2F)cn1)C1CC1 (stereo not drawn) [Compound 200] | < 40% | 80 to 100%
30 | CC(C)(C)c1ccc(-c2ccc(C(O)(Cc3cccnc3)C(C)(C)C)nc2)cc1 (stereo not drawn) [Compound 201] | 60 to 79% | 80 to 100%
31 | CC(C)(C)C(O)(c1cncc(F)c1)c1ccc(-c2ccc(OC(F)(F)F)cc2)cn1 (stereo not drawn) [Compound 202] | 60 to 79% | 60 to 79%
32 | COc1ncncc1C(O)(c1ccc(-c2ccc(OCC(F)(F)F)cc2)cn1)C(C)(C)C (stereo not drawn) [Compound 203] | 40 to 59% | 80 to 100%
33 | CC#CC(OCC)(c1cncnc1)c1ccc(-c2ccc(OC(F)(F)F)cc2F)cn1 (stereo not drawn) [Compound 204] | < 40% | 60 to 79%
34 | CCC(O)(c1cncnc1)c1ccc(-c2ccc(OC(F)(F)F)cc2F)cn1 (stereo not drawn) [Compound 205] | 40 to 59% | 80 to 100%
35 | COC(C)(c1cncnc1)c1ccc(-c2ccc(OC(F)(F)F)cc2F)cn1 (stereo not drawn) [Compound 206] | < 40% | 40 to 59%
36 | CC(C)(C)C(O)(c1ccc(-c2ccc(OC(F)(F)F)cc2)cn1)c1cnccn1 (stereo not drawn) [Compound 207] | 40 to 59% | 60 to 79%
37 | CC(C)(C)C(O)(c1cncnc1)c1ccc(-c2c(F)cc(OC(F)(F)F)cc2F)cn1 (stereo not drawn) [Compound 210] | 80 to 100% | 80 to 100%
38 | COC(c1cncnc1)(c1ccc(-c2ccc(OC(F)(F)F)cc2F)cn1)C(C)(C)C (stereo not drawn) [Compound 211] | 80 to 100% | 80 to 100%
39 | Cc1cc(C2(C#N)CCC2)ccc1-c1ccc(C(O)(c2cncnc2)C(C)(C)C)nc1 (stereo not drawn) [Compound 212] | 80 to 100% | 80 to 100%
40 | CCC(OC)(c1cncnc1)c1ccc(-c2ccc(OC(F)(F)F)cc2)cn1 (stereo not drawn) [Compound 213] | 60 to 79% | 60 to 79%
41 | COC(c1cncnc1)(c1ccc(-c2ccc(C(C)(C)C#N)cc2)cn1)C(C)(C)C (stereo not drawn) [Compound 214] | < 40% | 80 to 100%
42 | CCOC(C)(c1cncnc1)c1ccc(-c2ccc(OC(F)(F)F)cc2F)cn1 (stereo not drawn) [Compound 215] | < 40% | < 40%
43 | CSc1cc(C(C)(C)C#N)ccc1-c1ccc(C(O)(c2cncnc2)C(C)(C)C)nc1 (stereo not drawn) [Compound 216, 2-(4-(6-(1-hydroxy-2,2-dimethyl-1-(pyrimidin-5-yl)propyl)pyridin-3-yl)-3-(methylthio)phenyl)-2-methylpropanenitrile] | 80 to 100% | 80 to 100%
44 | CC#CC(OC)(c1cncnc1)c1ccc(-c2ccc(OC(F)(F)F)cc2)cn1 (stereo not drawn) [Compound 217] | < 40% | < 40%
45 | COc1ncncc1C(O)(c1ccc(-c2ccc(OCC(F)(F)F)nc2)cn1)C(C)(C)C (stereo not drawn) [Compound 218] | < 40% | 80 to 100%
46 | CC(C)(C)C(O)(Cc1cncnc1)c1ccc(-c2ccc(SC(F)(F)F)cc2)cn1 (stereo not drawn) [Compound 219] | 40 to 59% | 60 to 79%
47 | CCOC(c1cncnc1)(c1ccc(-c2ccc(OC(F)(F)F)cc2F)cn1)C(C)(C)C (stereo not drawn) [Compound 220] | < 40% | 80 to 100%
48 | CC(O)(c1cncnc1)c1ccc(-c2ccc(OC(F)(F)F)cc2F)cn1 (stereo not drawn) [Compound 221] | < 40% | 40 to 59%
